{"source": "ChEMBL document CHEMBL6127100", "about": "“Plant based steroidal and triterpenoid sapogenins: Chemistry on diosgenin and biological aspects” (Eur J Med Chem, 2024)", "key": {"[1]": {"system": "WiDr", "assay": "Antiproliferative activity against human WiDr cells assessed as inhibition of cell growth incubated for 48 hrs by tryphan blue dye based assay", "format": "functional"}, "[2]": {"system": "HeLa", "assay": "Antiproliferative activity against human HeLa cells assessed as inhibition of cell growth incubated for 48 hrs by tryphan blue dye based assay", "format": "functional"}, "[3]": {"system": "HBL", "assay": "Antiproliferative activity against human HBL cells assessed as inhibition of cell growth incubated for 48 hrs by tryphan blue dye based assay", "format": "functional"}, "[4]": {"system": "T47D", "assay": "Antiproliferative activity against human T47D cells assessed as inhibition of cell growth incubated for 48 hrs by tryphan blue dye based assay", "format": "functional"}, "[5]": {"system": "SW1573", "assay": "Antiproliferative activity against human SW1573 cells assessed as inhibition of cell growth incubated for 48 hrs by tryphan blue dye based assay", "format": "functional", "details": "SW1573, 48 h"}, "[6]": {"system": "A549", "assay": "Antiproliferative activity against human A549 cells assessed as inhibition of cell growth incubated for 48 hrs by tryphan blue dye based assay", "format": "functional", "details": "A549, 48 h"}, "[7]": {"system": "MDA-MB-231", "assay": "Cytotoxicity against human MDA-MB-231 cells assessed as reduction in cell viability incubated for 24 hrs by MTT assay", "format": "functional, cell-based", "details": "MDA-MB-231, 24 h"}, "[8]": {"system": "RAW264.7", "assay": "Anti-inflammatory activity in LPS-induced mouse RAW264.7 cells assessed as reduction in TNF-alpha production at by ELISA", "format": "functional", "parameters": "scale not given: the % may be the effect or the level left"}, "[9]": {"system": "Jurkat", "assay": "Cytotoxicity against human Jurkat cells assessed as reduction in cell viability incubated for 24 hrs by MTT assay", "format": "functional, cell-based"}, "[10]": {"system": "RAW264.7", "assay": "Anti-inflammatory activity in LPS-induced mouse RAW264.7 cells assessed as inhibition of IL-6 production at by ELISA", "format": "functional", "parameters": "scale not given: the % may be the effect or the level left"}, "[11]": {"system": "RAW264.7", "assay": "Antiinflammatory activity in LPS-induced mouse RAW264.7 cells assessed as inhibition of IL-6 production pretreated for 1 hr followed by LPS stimulation and measured after 3 hrs by ELISA", "format": "functional", "parameters": "scale not given: the % may be the effect or the level left", "details": "time 4 hrs"}, "[12]": {"system": "DLD-1", "assay": "Cytotoxicity against human DLD-1 cells assessed as reduction in cell growth incubated for 48 hrs by SRB assay", "format": "functional, cell-based", "details": "DLD-1, 48 h"}, "[13]": {"system": "FaDu", "assay": "Antiproliferative activity against human FaDu cells", "format": "functional, cell-based"}, "[14]": {"system": "FaDu", "assay": "Cytotoxicity against human FaDu cells assessed as reduction in cell growth incubated for 48 hrs by SRB assay", "format": "functional, cell-based"}, "[15]": {"system": "DLD-1", "assay": "Cytotoxicity against human DLD-1 cells", "format": "functional, cell-based"}, "[16]": {"system": "DU-145", "assay": "Antiproliferative activity against human DU-145 cells", "format": "functional, cell-based"}, "[17]": {"system": "MCF7", "assay": "Cytotoxicity against human MCF7 cells assessed as reduction in cell growth incubated for 48 hrs by SRB assay", "format": "functional, cell-based", "details": "MCF7, 48 h"}, "[18]": {"system": "RAW264.7", "assay": "Anti-inflammatory activity in mouse RAW264.7 cells assessed as inhibition of LPS-induced TNFalpha production preincubated for 1 hr followed by LPS addition and measured after 24 hrs by ELISA", "format": "functional", "parameters": "scale not given: the % may be the effect or the level left", "details": "time 25 hrs"}, "[19]": {"system": "A549", "assay": "Cytotoxicity against human A549 cells", "format": "functional, cell-based"}, "[20]": {"system": "DU-145", "assay": "Cytotoxicity against human DU-145 cells assessed as reduction in cell growth incubated for 48 hrs by SRB assay", "format": "functional, cell-based", "details": "DU-145, 48 h"}, "[21]": {"system": "MCF7", "assay": "Cytotoxicity against human MCF7 cells", "format": "functional, cell-based"}, "[22]": {"system": "A549", "assay": "Cytotoxicity against human A549 cells assessed as reduction in cell growth incubated for 48 hrs by SRB assay", "format": "functional, cell-based", "details": "A549, 48 h"}, "[23]": {"system": "HeLa", "assay": "Cytotoxicity against human HeLa cells assessed as reduction in cell viability incubated for 24 hrs by MTT assay", "format": "functional, cell-based"}, "[24]": {"system": "MCF7", "assay": "Cytotoxicity against human MCF7 cells assessed as reduction in cell viability incubated for 24 hrs by MTT assay", "format": "functional, cell-based", "details": "MCF7, 24 h"}, "[25]": {"system": "HeLa", "assay": "Antiproliferative activity against human HeLa cells assessed as reduction in cell growth by MTT assay", "format": "functional, cell-based"}}}
{"smiles": "CC(CCC[C@H](C)[C@H]1[C@@H](O)C[C@H]2[C@@H]3CC=C4C[C@@H](O)CC[C@]4(C)[C@H]3CC[C@]12C)C[Se]C#N", "note": "(stereo not given in full)", "values": [{"measurement": "IC50", "setting": "[1]", "value": 5.5, "unit": "µM"}, {"measurement": "IC50", "setting": "[2]", "value": 3.3, "unit": "µM"}, {"measurement": "IC50", "setting": "[3]", "value": 2.2, "unit": "µM"}, {"measurement": "IC50", "setting": "[4]", "value": 3.2, "unit": "µM"}, {"measurement": "IC50", "setting": "[5]", "value": 2.2, "unit": "µM"}, {"measurement": "IC50", "setting": "[6]", "value": 1.7, "unit": "µM"}]}
{"smiles": "CC(=O)O[C@H]1CC[C@@]2(C)C(=CC[C@H]3[C@@H]4C[C@@H]5O[C@H](CC[C@@H](C)COC(=O)N6CCN(C)CC6)[C@@H](C)[C@@H]5[C@@]4(C)CC[C@@H]32)C1", "values": [{"measurement": "IC50", "setting": "[7]", "value": 13.5, "unit": "µM"}, {"measurement": "Activity", "setting": "[8]", "value": 33.66, "unit": "%"}, {"measurement": "IC50", "setting": "[9]", "value": 15.8, "unit": "µM"}, {"measurement": "Activity", "setting": "[10]", "value": 49, "unit": "%"}]}
{"smiles": "C[C@H]1CO[C@@]2(O[C@H]3C[C@H]4[C@@H]5/C(=N/CCCCCCC(=O)O)C=C6C[C@@H](O)CC[C@]6(C)[C@H]5CC[C@]4(C)[C@H]3[C@@H]2C)/C(=N/O)C1", "values": [{"measurement": "Activity", "setting": "[11]", "value": 19.73, "unit": "%"}, {"measurement": "IC50", "setting": "[12]", "value": 16, "unit": "µM"}, {"measurement": "IC50", "setting": "[13]", "value": 15.2, "unit": "µM"}, {"measurement": "IC50", "setting": "[14]", "value": 16.6, "unit": "µM"}, {"measurement": "IC50", "setting": "[15]", "value": 14.6, "unit": "µM"}, {"measurement": "IC50", "setting": "[16]", "value": 12.8, "unit": "µM"}, {"measurement": "IC50", "setting": "[17]", "value": 15.6, "unit": "µM"}, {"measurement": "Activity", "setting": "[18]", "value": 41.72, "unit": "%"}, {"measurement": "IC50", "setting": "[19]", "value": 15.8, "unit": "µM"}, {"measurement": "IC50", "setting": "[20]", "value": 16.6, "unit": "µM"}, {"measurement": "IC50", "setting": "[21]", "value": 15.8, "unit": "µM"}, {"measurement": "IC50", "setting": "[22]", "value": 17.1, "unit": "µM"}]}
{"smiles": "CC(=O)O[C@H]1CC[C@@]2(C)C(=CC[C@H]3[C@@H]4C[C@@H]5O[C@H](CC[C@@H](C)CO)[C@@H](C)[C@@H]5[C@@]4(C)CC[C@@H]32)C1", "values": [{"measurement": "IC50", "setting": "[23]", "value": 11.4, "unit": "µM"}, {"measurement": "IC50", "setting": "[24]", "value": 11, "unit": "µM"}]}
{"smiles": "CC(=O)OC[C@H](C)CCC(=O)[C@@H](C)[C@H]1[C@@H](OC(C)=O)C[C@H]2[C@@H]3CC=C4C[C@H](N=[N+]=[N-])CC[C@]4(C)[C@H]3CC[C@]12C", "values": [{"measurement": "IC50", "setting": "[25]", "value": 11.8, "unit": "µM"}]}
